Columns and labels:
Test in all cases: relative viability (nuclei count vs DMSO), 5 days (fraction); higher = more cells survive
NCI-H1437 = system: NCI-H1437
Summary of the method: (§1)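 Dosing by pin tool came one day after lung cancer cell lines were seeded in 1536-well plates, using either one drug or a fixed anchor-drug dose plus five library-drug doses (not always all listed) in √10 steps. After 5 days, nuclei were counted on 4× images. Relative viability is treated-well nuclei count divided by vehicle-well nuclei count, and values are medians of duplicate plates.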

HCC-827 = system: HCC-827
Summary of the method: as §1

NCI-H647 = system: NCI-H647
Summary of the method: as §1

NCI-H1355 = system: NCI-H1355
Summary of the method: as §1

SK-LU-1 = system: SK-LU-1
Summary of the method: as §1

NCI-H2405 = system: NCI-H2405
Summary of the method: as §1

NCI-H2342 = system: NCI-H2342
Summary of the method: as §1

NCI-H661 = system: NCI-H661
Summary of the method: as §1

EKVX = system: EKVX
Summary of the method: as §1

NCI-H1734 = system: NCI-H1734
Summary of the method: as §1

NCI-H2170 = system: NCI-H2170
Summary of the method: as §1

NCI-H596 = system: NCI-H596
Summary of the method: as §1

HCC-366 = system: HCC-366
Summary of the method: as §1

LOU-NH91 = system: LOU-NH91
Summary of the method: as §1

SK-MES-1 = system: SK-MES-1
Summary of the method: as §1

HARA = system: HARA
Summary of the method: as §1

NCI-H2228 = system: NCI-H2228
Summary of the method: as §1

NCI-H1395 = system: NCI-H1395
Summary of the method: as §1

LC-2-ad = system: LC-2-ad
Summary of the method: as §1

NCI-H2087 = system: NCI-H2087
Summary of the method: as §1

NCI-H2009 = system: NCI-H2009
Summary of the method: as §1

NCI-H1792 = system: NCI-H1792
Summary of the method: as §1

BEN = system: BEN
Summary of the method: as §1

NC(=O)Nc1cc(-c2cccc(F)c2)sc1C(=O)N[C@H]1CCCNC1 [AZD7762] + CC(=O)Nc1cccc(-n2c(=O)n(C3CC3)c(=O)c3c(Nc4ccc(I)cc4F)n(C)c(=O)c(C)c32)c1 [Trametinib] (partner 0.02 µM) showed a relative viability (NCI-H1437; first compound 0.01 µM) of 0.561, a relative viability (NCI-H1437; first compound 0.03162 µM) of 0.53 and a relative viability (NCI-H1437; first compound 0.1 µM) of 0.549. It also gave a relative viability (NCI-H1437; first compound 0.3162 µM) of 0.662, a relative viability (NCI-H1437; first compound 1 µM) of 0.494 and a relative viability (HCC-827; first compound 0.01 µM) of 0.577. The relative viability (HCC-827; first compound 0.03162 µM) was 0.534, the relative viability (HCC-827; first compound 0.1 µM) was 0.561 and the relative viability (HCC-827; first compound 0.3162 µM) was 0.575. The relative viability (HCC-827; first compound 1 µM) was 0.376, the relative viability (NCI-H647; first compound 0.01 µM) was 0.533 and the relative viability (NCI-H647; first compound 0.03162 µM) was 0.579. It also gave a relative viability (NCI-H647; first compound 0.1 µM) of 0.456, a relative viability (NCI-H647; first compound 0.3162 µM) of 0.384 and a relative viability (NCI-H647; first compound 1 µM) of 0.16. The relative viability (NCI-H1355; first compound 0.01 µM) was 0.406, the relative viability (NCI-H1355; first compound 0.03162 µM) was 0.466 and the relative viability (NCI-H1355; first compound 0.1 µM) was 0.368. For the same compound, the relative viability (NCI-H1355; first compound 0.3162 µM) was 0.441, the relative viability (NCI-H1355; first compound 1 µM) was 0.522 and the relative viability (SK-LU-1; first compound 0.01 µM) was 0.553. For the same compound, the relative viability (SK-LU-1; first compound 0.03162 µM) was 0.609, the relative viability (SK-LU-1; first compound 0.1 µM) was 0.393 and the relative viability (SK-LU-1; first compound 0.3162 µM) was 0.188. The relative viability (SK-LU-1; first compound 1 µM) was 0.24, the relative viability (NCI-H2405; first compound 0.01 µM) was 0.744 and the relative viability (NCI-H2405; first compound 0.03162 µM) was 0.57. The relative viability (NCI-H2405; first compound 0.1 µM) was 0.557, the relative viability (NCI-H2405; first compound 0.3162 µM) was 0.631 and the relative viability (NCI-H2405; first compound 1 µM) was 0.347. For the same compound, the relative viability (NCI-H2342; first compound 0.01 µM) was 0.861, the relative viability (NCI-H2342; first compound 0.03162 µM) was 0.756 and the relative viability (NCI-H2342; first compound 0.1 µM) was 0.828. For the same compound, the relative viability (NCI-H2342; first compound 0.3162 µM) was 0.863, the relative viability (NCI-H2342; first compound 1 µM) was 0.97 and the relative viability (NCI-H661; first compound 0.01 µM) was 0.662. For the same compound, the relative viability (NCI-H661; first compound 0.03162 µM) was 0.569, the relative viability (NCI-H661; first compound 0.1 µM) was 0.577 and the relative viability (NCI-H661; first compound 0.3162 µM) was 0.599. For the same compound, the relative viability (NCI-H661; first compound 1 µM) was 0.369, the relative viability (EKVX; first compound 0.01 µM) was 0.345 and the relative viability (EKVX; first compound 0.03162 µM) was 0.502. It also gave a relative viability (EKVX; first compound 0.1 µM) of 0.371, a relative viability (EKVX; first compound 0.3162 µM) of 0.314 and a relative viability (EKVX; first compound 1 µM) of 0.279. For the same compound, the relative viability (NCI-H1734; first compound 0.01 µM) was 0.761, the relative viability (NCI-H1734; first compound 0.03162 µM) was 0.683 and the relative viability (NCI-H1734; first compound 0.1 µM) was 0.812. It also gave a relative viability (NCI-H1734; first compound 0.3162 µM) of 0.641, a relative viability (NCI-H1734; first compound 1 µM) of 0.562 and a relative viability (NCI-H2170; first compound 0.01 µM) of 0.935. The relative viability (NCI-H2170; first compound 0.03162 µM) was 0.939, the relative viability (NCI-H2170; first compound 0.1 µM) was 0.945 and the relative viability (NCI-H2170; first compound 0.3162 µM) was 0.951. It also gave a relative viability (NCI-H2170; first compound 1 µM) of 0.914, a relative viability (NCI-H596; first compound 0.01 µM) of 0.931 and a relative viability (NCI-H596; first compound 0.03162 µM) of 0.8. It also gave a relative viability (NCI-H596; first compound 0.1 µM) of 0.923, a relative viability (NCI-H596; first compound 0.3162 µM) of 0.803 and a relative viability (NCI-H596; first compound 1 µM) of 0.626. The relative viability (HCC-366; first compound 0.01 µM) was 0.358, the relative viability (HCC-366; first compound 0.03162 µM) was 0.329 and the relative viability (HCC-366; first compound 0.1 µM) was 0.363. It also gave a relative viability (HCC-366; first compound 0.3162 µM) of 0.325, a relative viability (HCC-366; first compound 1 µM) of 0.13 and a relative viability (LOU-NH91; first compound 0.01 µM) of 0.78. For the same compound, the relative viability (LOU-NH91; first compound 0.03162 µM) was 0.793, the relative viability (LOU-NH91; first compound 0.1 µM) was 0.761 and the relative viability (LOU-NH91; first compound 0.3162 µM) was 0.66. It also gave a relative viability (LOU-NH91; first compound 1 µM) of 0.67, a relative viability (SK-MES-1; first compound 0.01 µM) of 0.543 and a relative viability (SK-MES-1; first compound 0.03162 µM) of 0.535. The relative viability (SK-MES-1; first compound 0.1 µM) was 0.559, the relative viability (SK-MES-1; first compound 0.3162 µM) was 0.347 and the relative viability (SK-MES-1; first compound 1 µM) was 0.227. The relative viability (HARA; first compound 0.01 µM) was 0.686, the relative viability (HARA; first compound 0.03162 µM) was 0.629 and the relative viability (HARA; first compound 0.1 µM) was 0.868. It also gave a relative viability (HARA; first compound 0.3162 µM) of 0.664, a relative viability (HARA; first compound 1 µM) of 0.295 and a relative viability (NCI-H2228; first compound 0.01 µM) of 0.483. The relative viability (NCI-H2228; first compound 0.03162 µM) was 0.668, the relative viability (NCI-H2228; first compound 0.1 µM) was 0.461 and the relative viability (NCI-H2228; first compound 0.3162 µM) was 0.37. It also gave a relative viability (NCI-H2228; first compound 1 µM) of 0.187, a relative viability (NCI-H1395; first compound 0.01 µM) of 1.18 and a relative viability (NCI-H1395; first compound 0.03162 µM) of 1.12. It also gave a relative viability (NCI-H1395; first compound 0.1 µM) of 0.92, a relative viability (NCI-H1395; first compound 0.3162 µM) of 0.637 and a relative viability (NCI-H1395; first compound 1 µM) of 0.368. For the same compound, the relative viability (LC-2-ad; first compound 0.01 µM) was 0.914, the relative viability (LC-2-ad; first compound 0.03162 µM) was 0.9 and the relative viability (LC-2-ad; first compound 0.1 µM) was 0.906. It also gave a relative viability (LC-2-ad; first compound 0.3162 µM) of 0.647, a relative viability (LC-2-ad; first compound 1 µM) of 0.544 and a relative viability (NCI-H2087; first compound 0.01 µM) of 0.211. It also gave a relative viability (NCI-H2087; first compound 0.03162 µM) of 0.212, a relative viability (NCI-H2087; first compound 0.1 µM) of 0.248 and a relative viability (NCI-H2087; first compound 0.3162 µM) of 0.333. It also gave a relative viability (NCI-H2087; first compound 1 µM) of 0.254, a relative viability (NCI-H2009; first compound 0.01 µM) of 0.279 and a relative viability (NCI-H2009; first compound 0.03162 µM) of 0.35. The relative viability (NCI-H2009; first compound 0.1 µM) was 0.207, the relative viability (NCI-H2009; first compound 0.3162 µM) was 0.295 and the relative viability (NCI-H2009; first compound 1 µM) was 0.236. It also gave a relative viability (NCI-H1792; first compound 0.01 µM) of 0.406, a relative viability (NCI-H1792; first compound 0.03162 µM) of 0.355 and a relative viability (NCI-H1792; first compound 0.1 µM) of 0.589. For the same compound, the relative viability (NCI-H1792; first compound 0.3162 µM) was 0.411, the relative viability (NCI-H1792; first compound 1 µM) was 0.527 and the relative viability (BEN; first compound 0.01 µM) was 1.15. The relative viability (BEN; first compound 0.03162 µM) was 1.11, the relative viability (BEN; first compound 0.1 µM) was 1.09 and the relative viability (BEN; first compound 0.3162 µM) was 1.09. For the same compound, the relative viability (BEN; first compound 1 µM) was 0.968.

Reference: the supplement of paper PMC10307832
